The first experiment addresses T1, human vasopressin V1a receptor subtype (Homo sapiens, UniProt P37288).
T1 construct: host or cells: CHO cells, stably transfected (pZeoSV vector for the Thibonnier line)
Briefly: Vasopressin binding in CHO cell membranes expressing human vasopressin V1a subtype receptors ([3H]Manning ligand radioligand binding). To be noted: 100 nM. The procedure, abridged: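 Membranes from CHO cells expressing human V1a, 25–50 μg protein/well, incubated 60 min at room temperature with [3H]Manning ligand (20 μL of 8 nM stock) in 50 mM Tris-HCl pH 7.4 with BSA, MgCl2 and protease inhibitors. Filtration then scintillation counting; reported as % inhibition or IC50 (nM).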
T1 sequence (P37288 whole entry): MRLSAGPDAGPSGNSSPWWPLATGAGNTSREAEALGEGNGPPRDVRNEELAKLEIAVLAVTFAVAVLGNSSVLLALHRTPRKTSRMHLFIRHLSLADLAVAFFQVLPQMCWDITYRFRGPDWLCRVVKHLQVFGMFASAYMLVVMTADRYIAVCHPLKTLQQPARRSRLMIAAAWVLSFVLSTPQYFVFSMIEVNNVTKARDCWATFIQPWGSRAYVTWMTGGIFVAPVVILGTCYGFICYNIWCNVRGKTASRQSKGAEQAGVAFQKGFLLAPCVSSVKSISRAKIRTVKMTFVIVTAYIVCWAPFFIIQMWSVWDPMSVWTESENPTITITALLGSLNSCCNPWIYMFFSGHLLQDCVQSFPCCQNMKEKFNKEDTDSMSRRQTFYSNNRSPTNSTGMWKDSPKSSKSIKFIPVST
`Cc1cc(C(=O)N2Cc3ccc(C(=O)N4CCN(c5ccncc5)CC4)n3Cc3ccccc32)ccc1-c1ccccc1C(F)(F)F` [Example 1]: the “V1a % inhibition @ 100 nM” value came out at 9%. With `COc1ccccc1-c1ccc(C(=O)N2Cc3ccc(C(=O)N(C)CCc4ccccn4)n3Cc3ccccc32)cc1C` [Example 65, 10-[(2′-Methoxy-2-methyl-[1,1′-biphenyl]-4-yl)carbonyl]-N-methyl-N-[2-(2-pyridinyl)ethyl]-10,11-dihydro-5H-pyrrolo[2,1-c][1,4]benzodiazepine-3-carboxamide], the inhibition at 0.1 µM was 25%. The same measure, in the same setting: as for `Cc1ccccc1-c1ccc(C(=O)N2Cc3ccc(C(=O)N(C)CCc4ccccn4)n3Cc3ccccc32)cc1C` [Example 66, 10-[(2,2′-Dimethyl-[1,1′-biphenyl]-4-yl)carbonyl]-N-methyl-N-[2-(2-pyridinyl)ethyl]-10,11-dihydro-5H-pyrrolo[2,1-c][1,4]benzodiazepine-3-carboxamide], the figure is 58%; as for `COc1ccccc1-c1ccc(C(=O)N2Cc3ccc(C(=O)N(C)CCc4ccccn4)n3Cc3ccccc32)cc1` [Example 67, 10-[(2′-Methoxy-[1,1′-biphenyl]-4-yl)carbonyl]-N-methyl-N-[2-(2-pyridinyl)ethyl]-10,11-dihydro-5H-pyrrolo[2,1-c][1,4]benzodiazepine-3-carboxamide], 40%; as for `Cc1ccccc1-c1ccc(C(=O)N2Cc3ccc(C(=O)N(C)CCc4ccccn4)n3Cc3ccccc32)cc1` [Example 68, N-Methyl-10-[(2′-methyl-[1,1′-biphenyl]-4-yl)carbonyl]-N-[2-(2-pyridinyl)ethyl]-10,11-dihydro-5H-pyrrolo[2,1-c][1,4]benzodiazepine-3-carboxamide], 81%. `COc1cc(C(=O)N2Cc3ccc(C(=O)N(C)CCc4ccccn4)n3Cc3ccccc32)ccc1-c1ccccc1C` [Example 69, 10-[(2-Methoxy-2′-methyl-[1,1′-biphenyl]-4-yl)carbonyl]-N-methyl-N-[2-(2-pyridinyl)ethyl]-10,11-dihydro-5H-pyrrolo[2,1-c][1,4]benzodiazepine-3-carboxamide]: the inhibition at 0.1 µM was 72%.

Regarding `COc1cccc(-c2cc(OC)c(C(=O)N3Cc4ccc(C(=O)N(C)CCc5ccccn5)n4Cc4ccccc43)cc2Cl)c1` [Example 70, 10-[(6-Chloro-3,3′-dimethoxy-[1,1′-biphenyl]-4-yl)carbonyl]-N-methyl-N-[2-(2-pyridinyl)ethyl]-10,11-dihydro-5H-pyrrolo[2,1-c][1,4]benzodiazepine-3-carboxamide], the inhibition at 0.1 µM amounted to 8%.

With `COc1cc(C(=O)N2Cc3ccc(C(=O)N(C)CCc4ccccn4)n3Cc3ccccc32)ccc1-c1cccc2ccccc12` [Example 71, 10-[3-Methoxy-4-(naphthalen-1-yl)benzoyl]-N-methyl-N-[2-(2-pyridinyl)ethyl]-10,11-dihydro-5H-pyrrolo[2,1-c][1,4]benzodiazepine-3-carboxamide], the inhibition at 0.1 µM amounted to 20%. Still for that read-out and setting: the result for `COc1cccc(-c2ccc(C(=O)N3Cc4ccc(C(=O)N(C)CCc5ccccn5)n4Cc4ccccc43)cc2OC)c1` [Example 72, 10-[(2,3′-Dimethoxy-[1,1′-biphenyl]-4-yl)carbonyl]-N-methyl-N-[2-(2-pyridinyl)ethyl]-10,11-dihydro-5H-pyrrolo[2,1-c][1,4]benzodiazepine-3-carboxamide] reads 54%; that for `CN(CCc1ccccn1)C(=O)c1ccc2n1Cc1ccccc1N(C(=O)c1ccc(-c3cccc4ccccc34)cc1Cl)C2` [Example 73, 10-[2-Chloro-4-(naphthalen-1-yl)benzoyl]-N-methyl-N-[2-(2-pyridinyl)ethyl]-10,11-dihydro-5H-pyrrolo[2,1-c][1,4]benzodiazepine-3-carboxamide], 6%. The same measure, in the same setting: as for `Cc1cc(C(=O)N2Cc3ccc(C(=O)N(C)CCc4ccccn4)n3Cc3ccccc32)ccc1-c1ccccc1C(F)(F)F` [Example 74, N-Methyl-10-{[2-methyl-2′-trifluoromethyl-[1,1′-biphenyl]-4-yl]carbonyl}-N-[2-(2-pyridinyl)ethyl]-10,11-dihydro-5H-pyrrolo[2,1-c][1,4]benzodiazepine-3-carboxamide], the figure is 63%. Still for that read-out and setting: the result for `COc1ccccc1-c1ccc(C(=O)N2Cc3ccc(C(=O)N4CCN(c5ccccn5)CC4)n3Cc3ccccc32)cc1C` [Example 75, {10-[(2′-Methoxy-2-methyl-[1,1′-biphenyl]-4-yl)carbonyl]-10,11-dihydro-5H-pyrrolo[2,1-c][1,4]benzodiazepin-3-yl}[4-(2-pyridinyl)-1-piperazinyl]methanone] reads -1%; that for `Cc1ccccc1-c1ccc(C(=O)N2Cc3ccc(C(=O)N4CCN(c5ccccn5)CC4)n3Cc3ccccc32)cc1C` [Example 76, {10-[(2,2′-Dimethyl-[1,1′-biphenyl]-4-yl)carbonyl]-10,11-dihydro-5H-pyrrolo[2,1-c][1,4]benzodiazepin-3-yl}[4-(2-pyridinyl)-1-piperazinyl]methanone], 11%.

Turning to `COc1cccc(-c2ccc(C(=O)N3Cc4ccc(C(=O)N5CCN(c6ccccn6)CC5)n4Cc4ccccc43)cc2C)c1` [Example 77, {10-[(3′-Methoxy-2-methyl-[1,1′-biphenyl]-4-yl)carbonyl]-10,11-dihydro-5H-pyrrolo[2,1-c][1,4]benzodiazepin-3-yl}[4-(2-pyridinyl)-1-piperazinyl]methanone], the inhibition at 0.1 µM was found to be 5%. The same measure, in the same setting: as for `COc1ccccc1-c1ccc(C(=O)N2Cc3ccc(C(=O)N4CCN(c5ccccn5)CC4)n3Cc3ccccc32)cc1` [Example 78, {10-[(2′-Methoxy-[1,1′-biphenyl]-4-yl)carbonyl]-10,11-dihydro-5H-pyrrolo[2,1-c][1,4]benzodiazepin-3-yl}[4-(2-pyridinyl)-1-piperazinyl]methanone], the figure is 6%; as for `Cc1ccccc1-c1ccc(C(=O)N2Cc3ccc(C(=O)N4CCN(c5ccccn5)CC4)n3Cc3ccccc32)cc1` [Example 79, {10-[(2′-Methyl-[1,1′-biphenyl]-4-yl)carbonyl]-10,11-dihydro-5H-pyrrolo[2,1-c][1,4]benzodiazepin-3-yl}[4-(2-pyridinyl)-1-piperazinyl]methanone], 18%.

Still in this experiment, the particulars now being: value in parentheses.
Regarding `Cc1cc(C(=O)N2Cc3ccc(C(=O)N4CCN(Cc5ccc[n+]([O-])c5)CC4)n3Cc3ccccc32)ccc1-c1ccccc1C(F)(F)F` [Example 2, 10-{[2-Methyl-2′-trifluoromethyl-[1,1′-biphenyl]-4-yl]carbonyl}-3-({4-[(1-oxidopyridin-3-yl)methyl]piperazin-1-yl}carbonyl)-10,11-dihydro-5H-pyrrolo[2,1-c][1,4]benzodiazepine], the IC50 came to 3180 nM. Take `Cc1cc(C(=O)N2Cc3ccc(C(=O)N4CCN(Cc5ccc[n+]([O-])c5C)CC4)n3Cc3ccccc32)ccc1-c1ccccc1C(F)(F)F` [Example 3, 3-({4-[(2-Methyl-1-oxidopyridin-3-yl)methyl]piperazin-1-yl}carbonyl)-10-{[2-methyl-2′-trifluoromethyl-[1,1′-biphenyl]-4-yl]carbonyl}-10,11-dihydro-5H-pyrrolo[2,1-c][1,4]benzodiazepine]: the IC50 is greater than 3000 nM. Same read-out and setting: as for `Cc1cc(C(=O)N2Cc3ccc(C(=O)N(C)Cc4ccc[n+]([O-])c4)n3Cc3ccccc32)ccc1-c1ccccc1C(F)(F)F` [Example 4, N-Methyl-10-{[2-methyl-2′-trifluoromethyl-[1,1′-biphenyl]-4-yl]carbonyl}-N-[(1-oxidopyridin-3-yl)methyl]-10,11-dihydro-5H-pyrrolo[2,1-c][1,4]benzodiazepine-3-carboxamide], the figure is 792 nM; as for `COc1cc(-c2ccccc2C(F)(F)F)c(Cl)cc1C(=O)N1Cc2ccc(C(=O)N(C)Cc3cccnc3)n2Cc2ccccc21` [Example 5, 10-{[6-Chloro-3-methoxy-2′-trifluoromethyl-[1,1′-biphenyl]-4-yl]carbonyl}-N-methyl-N-(pyridin-3-ylmethyl)-10,11-dihydro-5H-pyrrolo[2,1-c][1,4]benzodiazepine-3-carboxamide], greater than 3000 nM; as for `COc1cc(-c2ccccc2Cl)c(Cl)cc1C(=O)N1Cc2ccc(C(=O)N(C)Cc3cccnc3)n2Cc2ccccc21` [Example 6, 10-[(2′,6-Dichloro-3-methoxy-[1,1′-biphenyl]-4-yl)carbonyl]-N-methyl-N-(pyridin-3-ylmethyl)-10,11-dihydro-5H-pyrrolo[2,1-c][1,4]benzodiazepine-3-carboxamide], 928 nM. For `COc1cc(C(=O)N2Cc3ccc(C(=O)N(C)Cc4cccnc4)n3Cc3ccccc32)ccc1-c1ccccc1C(F)(F)F` [Example 7, 10-{[2-Methoxy-2′-trifluoromethyl-[1,1′-biphenyl]-4-yl]carbonyl}-N-methyl-N-(pyridin-3-ylmethyl)-10,11-dihydro-5H-pyrrolo[2,1-c][1,4]benzodiazepine-3-carboxamide], the IC50 was 803 nM. Same read-out and setting: the result for `COc1cc(C(=O)N2Cc3ccc(C(=O)N(C)Cc4ccc[n+]([O-])c4)n3Cc3ccccc32)ccc1-c1ccccc1C(F)(F)F` [Example 8, 10-{[2-Methoxy-2′-trifluoromethyl-[1,1′-biphenyl]-4-yl]carbonyl}-N-methyl-N-(1-oxo-pyridin-3-ylmethyl)-10,11-dihydro-5H-pyrrolo[2,1-c][1,4]benzodiazepine-3-carboxamide] reads 801 nM. On the same count and under the same terms, as for `COc1cccc(-c2ccc(C(=O)N3Cc4ccc(C(=O)N(C)CCc5ccccn5)n4Cc4ccccc43)cc2C)c1` [Example 62, 10-[(3′-Methoxy-2-methyl-[1,1′-biphenyl]-4-yl)carbonyl]-N-methyl-N-[2-(2-pyridinyl)ethyl]-10,11-dihydro-5H-pyrrolo[2,1-c][1,4]benzodiazepine-3-carboxamide], the figure is 177 nM; as for `COc1cc(-c2ccccc2C)c(Cl)cc1C(=O)N1Cc2ccc(C(=O)N(C)CCc3ccccn3)n2Cc2ccccc21` [Example 63, 10-[(6-Chloro-3-methoxy-2′-methyl-[1,1′-biphenyl]-4-yl)carbonyl]-N-methyl-N-[2-(2-pyridinyl)ethyl]-10,11-dihydro-5H-pyrrolo[2,1-c][1,4]benzodiazepine-3-carboxamide], 273 nM.

By inhibition is commonly meant the relative decrease from the control value, in per cent. The IC50 is the point on the concentration scale where inhibition reaches its midpoint.

These data come from US7064120B2, “Tricyclic pyridyl carboxamides and derivatives thereof tocolytic oxytocin receptor antagonists” (Wyeth, priority 2001, dated 2006).
